# Measured values reported in publication PMC10882719 (Frontiers in Neuroscience, 2024).
# Read-outs that look alike come from different tables or passages of the source.
# Assays:
# Type in all cases: cell-based
# [1] = molecular target: T1, 168 GPCRs (Homo sapiens, UniProt P21731); settings: TBXA2R
# T1 construct: host or cells: PathHunter cell lines
# T1 sequence (P21731 1-343): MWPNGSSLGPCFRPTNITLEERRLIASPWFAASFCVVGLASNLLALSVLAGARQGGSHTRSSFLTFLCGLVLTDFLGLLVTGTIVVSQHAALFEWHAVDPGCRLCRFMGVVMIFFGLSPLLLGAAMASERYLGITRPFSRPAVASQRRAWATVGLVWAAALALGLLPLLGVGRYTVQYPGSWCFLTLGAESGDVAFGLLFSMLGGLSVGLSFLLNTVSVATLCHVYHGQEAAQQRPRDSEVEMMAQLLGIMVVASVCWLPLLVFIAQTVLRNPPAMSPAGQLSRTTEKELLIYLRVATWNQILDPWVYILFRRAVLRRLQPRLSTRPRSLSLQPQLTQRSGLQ
# [2] = molecular target: T2, 168 GPCRs (Homo sapiens, UniProt P22888); settings: LHCGR
# T2 construct: host or cells: PathHunter cell lines
# T2 sequence (P22888 27-699): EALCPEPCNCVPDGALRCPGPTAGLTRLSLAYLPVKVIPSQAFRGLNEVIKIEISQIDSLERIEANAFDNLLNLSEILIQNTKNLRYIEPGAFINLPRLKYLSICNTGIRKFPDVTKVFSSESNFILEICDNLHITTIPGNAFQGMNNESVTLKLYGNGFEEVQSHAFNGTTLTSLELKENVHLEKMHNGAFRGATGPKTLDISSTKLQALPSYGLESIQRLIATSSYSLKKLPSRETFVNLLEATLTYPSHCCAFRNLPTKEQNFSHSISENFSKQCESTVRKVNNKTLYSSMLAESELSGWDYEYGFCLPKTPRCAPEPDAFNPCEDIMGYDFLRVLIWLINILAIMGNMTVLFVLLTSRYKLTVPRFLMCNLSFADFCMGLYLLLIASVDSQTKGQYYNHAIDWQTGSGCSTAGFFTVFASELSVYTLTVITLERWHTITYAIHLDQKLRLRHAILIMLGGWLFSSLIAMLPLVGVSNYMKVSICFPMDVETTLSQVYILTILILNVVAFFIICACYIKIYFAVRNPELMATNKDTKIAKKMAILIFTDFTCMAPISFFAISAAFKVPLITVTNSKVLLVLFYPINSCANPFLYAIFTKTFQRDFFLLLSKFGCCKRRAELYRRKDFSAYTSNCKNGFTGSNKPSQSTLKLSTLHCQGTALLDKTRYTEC
# [3] = molecular target: T3, 168 GPCRs (Homo sapiens, UniProt P49682)
# T3 construct: host or cells: PathHunter cell lines
# T3 sequence (P49682 1-368): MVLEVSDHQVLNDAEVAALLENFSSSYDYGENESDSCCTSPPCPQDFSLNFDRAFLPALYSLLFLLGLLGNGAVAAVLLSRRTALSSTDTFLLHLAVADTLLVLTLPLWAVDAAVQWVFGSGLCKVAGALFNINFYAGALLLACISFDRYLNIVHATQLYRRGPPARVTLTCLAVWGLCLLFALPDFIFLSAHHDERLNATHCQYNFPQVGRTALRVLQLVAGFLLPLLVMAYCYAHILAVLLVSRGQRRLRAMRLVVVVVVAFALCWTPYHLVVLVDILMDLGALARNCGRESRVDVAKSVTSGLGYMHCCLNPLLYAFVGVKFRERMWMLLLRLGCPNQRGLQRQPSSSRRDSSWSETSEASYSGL
# [4] = molecular target: T4, 168 GPCRs (Homo sapiens, UniProt P32745); settings: SSTR3
# T4 construct: host or cells: PathHunter cell lines
# T4 sequence (P32745 whole entry): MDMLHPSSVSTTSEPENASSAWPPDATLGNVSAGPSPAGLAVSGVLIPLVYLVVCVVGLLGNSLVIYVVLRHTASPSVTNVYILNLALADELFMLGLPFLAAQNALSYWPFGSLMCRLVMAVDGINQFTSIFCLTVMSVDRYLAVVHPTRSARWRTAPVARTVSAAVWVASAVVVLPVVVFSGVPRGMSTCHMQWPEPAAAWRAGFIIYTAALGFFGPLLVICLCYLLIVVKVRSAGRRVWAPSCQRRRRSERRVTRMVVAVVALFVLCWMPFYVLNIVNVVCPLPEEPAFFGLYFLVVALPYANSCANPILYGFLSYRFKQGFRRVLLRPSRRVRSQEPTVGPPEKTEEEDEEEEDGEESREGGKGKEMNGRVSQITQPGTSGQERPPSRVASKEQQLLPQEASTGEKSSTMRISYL
# [5] = molecular target: T5, 168 GPCRs (Homo sapiens, UniProt P08913); settings: ADRA2A
# T5 construct: host or cells: PathHunter cell lines
# T5 sequence (P08913 1-465): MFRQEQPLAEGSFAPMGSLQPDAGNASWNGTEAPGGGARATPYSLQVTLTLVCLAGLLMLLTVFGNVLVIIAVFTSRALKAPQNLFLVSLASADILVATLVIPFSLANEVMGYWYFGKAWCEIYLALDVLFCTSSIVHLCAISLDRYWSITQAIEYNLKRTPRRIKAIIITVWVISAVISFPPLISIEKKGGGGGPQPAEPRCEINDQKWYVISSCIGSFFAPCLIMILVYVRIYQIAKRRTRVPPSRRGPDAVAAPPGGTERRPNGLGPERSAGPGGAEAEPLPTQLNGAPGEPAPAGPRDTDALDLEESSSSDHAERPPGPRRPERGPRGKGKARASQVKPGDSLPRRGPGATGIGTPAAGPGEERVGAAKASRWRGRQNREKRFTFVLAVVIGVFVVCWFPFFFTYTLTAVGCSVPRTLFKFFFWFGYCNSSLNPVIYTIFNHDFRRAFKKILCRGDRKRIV
# [6] = molecular target: T6, 168 GPCRs (Homo sapiens, UniProt Q9P296)
# T6 construct: host or cells: PathHunter cell lines
# T6 sequence (Q9P296 whole entry): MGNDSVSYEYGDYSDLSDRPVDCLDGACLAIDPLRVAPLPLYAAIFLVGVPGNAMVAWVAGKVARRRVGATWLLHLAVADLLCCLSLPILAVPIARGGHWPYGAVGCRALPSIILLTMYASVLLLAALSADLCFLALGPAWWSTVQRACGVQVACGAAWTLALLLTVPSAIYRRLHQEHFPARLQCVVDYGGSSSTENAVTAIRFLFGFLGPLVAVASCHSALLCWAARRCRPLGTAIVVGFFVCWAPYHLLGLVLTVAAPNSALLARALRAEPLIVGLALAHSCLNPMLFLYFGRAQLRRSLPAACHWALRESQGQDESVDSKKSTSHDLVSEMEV
# [7] = molecular target: T7, 168 GPCRs (Homo sapiens, UniProt Q9HBW0)
# T7 construct: host or cells: PathHunter cell lines
# T7 sequence (Q9HBW0 whole entry): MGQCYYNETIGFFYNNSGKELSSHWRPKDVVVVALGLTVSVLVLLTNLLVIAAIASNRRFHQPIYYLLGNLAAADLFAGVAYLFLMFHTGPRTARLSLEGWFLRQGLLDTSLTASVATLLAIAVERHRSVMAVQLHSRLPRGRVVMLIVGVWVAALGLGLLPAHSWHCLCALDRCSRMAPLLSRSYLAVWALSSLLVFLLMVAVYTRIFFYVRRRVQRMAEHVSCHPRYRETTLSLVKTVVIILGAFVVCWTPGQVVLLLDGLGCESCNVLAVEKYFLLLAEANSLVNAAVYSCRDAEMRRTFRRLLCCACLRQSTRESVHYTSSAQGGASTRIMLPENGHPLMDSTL
# [8] = molecular target: T8, 168 GPCRs (Homo sapiens, UniProt Q9H244); settings: P2RY12
# T8 construct: host or cells: PathHunter cell lines
# T8 sequence (Q9H244 whole entry): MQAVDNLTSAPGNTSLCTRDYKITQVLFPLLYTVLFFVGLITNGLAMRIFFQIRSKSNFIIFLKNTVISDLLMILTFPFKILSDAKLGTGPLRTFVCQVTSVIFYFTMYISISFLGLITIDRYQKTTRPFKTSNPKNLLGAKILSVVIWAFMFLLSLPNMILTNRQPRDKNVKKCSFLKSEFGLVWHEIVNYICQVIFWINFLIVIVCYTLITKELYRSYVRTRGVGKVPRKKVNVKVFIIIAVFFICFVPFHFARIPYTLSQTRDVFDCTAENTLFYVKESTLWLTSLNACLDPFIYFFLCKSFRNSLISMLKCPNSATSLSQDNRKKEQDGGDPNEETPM
# [9] = molecular target: T9, 168 GPCRs (Homo sapiens, UniProt Q9UBY5)
# T9 construct: host or cells: PathHunter cell lines
# T9 sequence (Q9UBY5 1-353): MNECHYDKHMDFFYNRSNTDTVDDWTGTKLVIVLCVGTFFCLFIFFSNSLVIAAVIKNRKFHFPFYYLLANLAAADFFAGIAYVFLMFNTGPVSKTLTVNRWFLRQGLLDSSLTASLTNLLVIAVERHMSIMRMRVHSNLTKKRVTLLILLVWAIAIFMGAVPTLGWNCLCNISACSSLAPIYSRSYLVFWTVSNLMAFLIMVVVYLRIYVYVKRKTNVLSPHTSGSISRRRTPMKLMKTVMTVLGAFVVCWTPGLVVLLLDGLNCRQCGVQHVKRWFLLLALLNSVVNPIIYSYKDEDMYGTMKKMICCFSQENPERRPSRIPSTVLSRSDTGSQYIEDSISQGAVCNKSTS
SMILES,% Agonist Activity ([1]; Conc 1 uM) [%],% Antagonist Activity ([1]; Conc 1 uM) [%],% Agonist Activity ([1]; Conc 10 uM) [%],% Antagonist Activity ([1]; Conc 10 uM) [%],% Agonist Activity ([2]; 1 uM) [%],% Antagonist Activity ([2]; 1 uM) [%],% Agonist Activity ([2]; 10 uM) [%],% Antagonist Activity ([2]; 10 uM) [%],"% Agonist Activity ([3]; CXCR3, 1 uM) [%]","% Antagonist Activity ([3]; CXCR3, 1 uM) [%]","% Agonist Activity ([3]; CXCR3, 10 uM) [%]","% Antagonist Activity ([3]; CXCR3, 10 uM) [%]",% Agonist Activity ([4]; Conc 1 uM) [%],% Antagonist Activity ([4]; Conc 1 uM) [%],% Agonist Activity ([4]; Conc 10 uM) [%],% Antagonist Activity ([4]; Conc 10 uM) [%],% Agonist Activity ([5]; 1 uM) [%],% Antagonist Activity ([5]; 1 uM) [%],% Agonist Activity ([5]; 10 uM) [%],% Antagonist Activity ([5]; 10 uM) [%],other results
"CNC(C)Cc1ccc2c(c1)OCO2 (stereo not drawn) [MDMA, 3,4-Methylenedioxy methamphetamine, reference compound]",2.8,9.4,1.6,14.2,2.4,1.2,0.9,-1,-3.7,11.3,-4.7,17.9,2.9,3.7,0.1,-0.9,7,-5,6.5,-13.9,"% Agonist Activity ([6]; C5L2, 1 uM): 7.7%; % Antagonist Activity ([6]; C5L2, 1 uM): -5.5%; % Agonist Activity ([6]; C5L2, 10 uM): 3.3%; % Antagonist Activity ([6]; C5L2, 10 uM): -4%; % Agonist Activity ([7]; EDG4, 1 uM): 1.5%; % Antagonist Activity ([7]; EDG4, 1 uM): 7.5%; % Agonist Activity ([7]; EDG4, 10 uM): 2.2%; % Antagonist Activity ([7]; EDG4, 10 uM): 10.2%; % Agonist Activity ([8]; Conc 1 uM): -1.6%; % Antagonist Activity ([8]; Conc 1 uM): 8.6%; % Agonist Activity ([8]; Conc 10 uM): -0.6%; % Antagonist Activity ([8]; Conc 10 uM): 5.9%; % Agonist Activity ([9]; EDG7, 1 uM): -2.8%; % Antagonist Activity ([9]; EDG7, 1 uM): -7%; % Agonist Activity ([9]; EDG7, 10 uM): -2.4%; % Antagonist Activity ([9]; EDG7, 10 uM): 0.8%"
CNC(C)C(=O)c1ccc2c(c1)OCO2 (stereo not drawn) [methylone],-1.1,-5.5,-2.9,-19.7,0.4,13.8,0.4,11.2,-0.2,4.5,1.6,-3.9,0.7,13.2,0.3,8,-3.8,-4.6,-3.8,1.9,"% Agonist Activity ([6]; C5L2, 1 uM): 8.4%; % Antagonist Activity ([6]; C5L2, 1 uM): 10%; % Agonist Activity ([6]; C5L2, 10 uM): 12.9%; % Antagonist Activity ([6]; C5L2, 10 uM): 1.4%; % Agonist Activity ([7]; EDG4, 1 uM): -2.2%; % Antagonist Activity ([7]; EDG4, 1 uM): -10.2%; % Agonist Activity ([7]; EDG4, 10 uM): -2.1%; % Antagonist Activity ([7]; EDG4, 10 uM): -21%; % Agonist Activity ([8]; Conc 1 uM): -1.5%; % Antagonist Activity ([8]; Conc 1 uM): -14.8%; % Agonist Activity ([8]; Conc 10 uM): -2.5%; % Antagonist Activity ([8]; Conc 10 uM): -10.4%; % Agonist Activity ([9]; EDG7, 1 uM): 3%; % Antagonist Activity ([9]; EDG7, 1 uM): 19.5%; % Agonist Activity ([9]; EDG7, 10 uM): 1.1%; % Antagonist Activity ([9]; EDG7, 10 uM): 17.9%"
